{"source": "paper PMC9858427", "about": "“Design, synthesis and biological evaluation of 2-((4-sulfamoylphenyl)amino)-pyrrolo[2,3-d]pyrimidine derivatives as CDK inhibitors” (Journal of Enzyme Inhibition and Medicinal Chemistry, 2023)", "key": {"[1]": {"system": "phosphorylation of Rb and RNA polymerase II, Mcl-1 and c-Myc protein", "assay": "Immunoblots of CDK downstream proteins in MIA PaCa-2 cells", "assay_type": "cell-based, human", "conditions": "6 h exposure", "method": "Harvested cells were lysed in 20 mmol/L Tris pH 7.7, 100 mmol/L NaCl, 20 mmol/L β-glycerophosphate, 5 mmol/L MgCl2, 1 mmol/L NaF, 0.1% Triton X-100, 5% glycerol plus freshly added 1 mmol/L DTT, 0.1 µmol/L okadaic acid, 1 mmol/L sodium vanadate, and cOmplete Mini Protease Inhibitor Tablets (Roche, #11836170001). For SDS-PAGE, equal amounts of protein/lane were loaded. After gel transfer onto PDV membrane, immunoblots were performed using the following antibodies: CDK9 (Cell Signalling Technology #C12FT; 1:1,000), RNA polymerase II (Abcam #ab5131; 1:1000), MCL-1 (Abcam #Y37; […] (Cell Signalling Technology #d2b12; 1:1,000), c-Myc (Abcam #YB69; 1:1000). Secondary antibodies were from Cell Signalling Technology (#7076 or #7074). ECL detection was performed."}, "[2]": {"system": "AsPC-1 cell-derived xenograft", "assay": "AsPC-1 cell-derived xenograft mice model, in vivo efficacy", "design": "species or system BALB/C nude mice", "conditions": "five days on two days off per week", "method": "Synthetic compound was administered as a suspension or solution in the saline with 5% DMSO and 5% Solutol. GCTB was dissolved in saline. All of the experiments were approved by the Institutional Animal Care and Use Committee of Institute of Medicinal Biotechnology. All experiments were carried out under ethics committee–approved protocols and in compliance with the guidelines for the care of laboratory animals of Institute of Medicinal Biotechnology, CAMS.\nAsPC-1 (5 × 10^7) cells were injected subcutaneously into 5-week-old female BALB/C nude mice (Beijing Huafukang Bioscience CO. Inc, Beijing, China). After two weeks, mice were omogenizamised and treated with vehicle, gemcitabine (GCTB), or test compound. Blank solvent and test compound was administered by oral gavage (10 ml/kg) with once daily of five days and followed by 2 days off in each week, GCTB was given once a week by 50 mg/kg intraperitoneal injection. Mice were inspected daily for clinical signs, both tumour diameters and body weight were determined 3 times weekly. Tumour volumes were calculated according to the formula “tumor volume (V) = length × width^2/2”. Median TGI values were calculated as follows: TGI = 100 × [1-(Vtreated group at day20-Vtreated group at day1)/(Vvehicle group at day20-Vvehicle group at day1)]. Data were plotted as average with SD in the graphical representation of tumour growth. The p values obtained from the two-way ANOVA analysis. Meanwhile, main organs of mice were collected, formalin-fixed and paraffin-embedded for pathological analysis by H&E dyeing. For drug concentration determination, blood and tumour tissues were collected at indicated time after single administration. Standard curve of test compound was established in the acquisition mode of SIM using a SHIMADZU LC-MS instrument. […] After centrifugation at 10 × 10^3 for 5 min, the supernatant was injected directedly into LC-MS instrument for quantification of drug concentration. […] After centrifugation under same condition as plasma samples, supernatant was separated and injected into LC-MS for quantification."}, "MIA PaCa-2 cells [3]": {"system": "MIA PaCa-2 cells", "assay": "Apoptosis analysis by PI and annexin V-FITC staining and flow cytometry", "assay_type": "cell-based, human", "conditions": "24 h treatment", "method": "(§1) MIA PaCa-2 cells were incubated with test compound at given concentration for indicated time in 6 well plates. The cells were collected and washed with cold PBS for two times. For cell cycle analysis, cells were fixed with 1 ml of 70% ethanol at −20 °C overnight then re-suspended with 400 µL binding buffer at density of 10^6 cells/mL, with PI staining for 30 min at room temperature. DNA contents were analysed by a BD Accuri C6 flow cytometry (BD Biosciences, Mountain View, CA, USA). For cell apoptosis analysis, after centrifugation and removal of the supernatants, cells were resuspended in 500 µL of 1 ×binding buffer which was then added to 5 µL of annexin V-FITC and incubated at room temperature for 10 min. After adding 10 µL of PI the cells were incubated at room temperature for another 10 min, and their fluorescence intensity evaluated by a BD Accuri C6 (BD Biosciences, Mountain View, CA, USA)."}, "MIA PaCa-2 cells [4]": {"system": "MIA PaCa-2 cells", "assay": "Cell cycle analysis by PI staining and flow cytometry", "assay_type": "cell-based, human", "conditions": "24 h treatment", "method": "as §1"}, "CDK9": {"target": "CDK9 (Homo sapiens, UniProt P50750)", "sequence (P50750 whole entry)": "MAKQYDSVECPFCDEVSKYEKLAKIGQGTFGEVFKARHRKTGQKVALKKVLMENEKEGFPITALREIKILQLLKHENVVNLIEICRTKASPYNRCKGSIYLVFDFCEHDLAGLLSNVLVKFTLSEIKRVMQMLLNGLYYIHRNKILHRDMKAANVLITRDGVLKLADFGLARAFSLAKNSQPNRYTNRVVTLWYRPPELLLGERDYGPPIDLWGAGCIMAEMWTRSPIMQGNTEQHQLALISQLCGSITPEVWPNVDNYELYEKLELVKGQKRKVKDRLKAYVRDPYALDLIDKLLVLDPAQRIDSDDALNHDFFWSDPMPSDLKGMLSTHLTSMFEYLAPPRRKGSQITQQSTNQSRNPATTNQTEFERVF", "sequence (O60563 whole entry partner)": "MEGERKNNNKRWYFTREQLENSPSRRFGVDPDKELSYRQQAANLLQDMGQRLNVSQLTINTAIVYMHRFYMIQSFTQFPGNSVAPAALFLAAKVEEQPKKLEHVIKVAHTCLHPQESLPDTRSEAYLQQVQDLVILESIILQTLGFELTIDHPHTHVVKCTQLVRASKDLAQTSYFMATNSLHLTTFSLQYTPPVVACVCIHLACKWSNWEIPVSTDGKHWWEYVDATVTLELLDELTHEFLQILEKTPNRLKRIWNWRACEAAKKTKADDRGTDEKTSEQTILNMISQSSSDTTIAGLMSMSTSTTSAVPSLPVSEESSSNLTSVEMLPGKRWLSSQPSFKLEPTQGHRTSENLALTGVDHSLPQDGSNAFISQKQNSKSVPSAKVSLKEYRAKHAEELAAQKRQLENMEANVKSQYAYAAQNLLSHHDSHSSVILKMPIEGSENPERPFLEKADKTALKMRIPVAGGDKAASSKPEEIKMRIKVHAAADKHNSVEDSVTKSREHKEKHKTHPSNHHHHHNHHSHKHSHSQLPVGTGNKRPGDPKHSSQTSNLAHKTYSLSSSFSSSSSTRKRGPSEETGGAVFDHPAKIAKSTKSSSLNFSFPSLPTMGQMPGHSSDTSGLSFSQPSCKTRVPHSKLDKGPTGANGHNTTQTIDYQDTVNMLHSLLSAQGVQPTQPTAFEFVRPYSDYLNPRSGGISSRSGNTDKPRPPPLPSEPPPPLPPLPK", "assay": "CDK9 kinase IC50, Mobility shift assay", "assay_type": "biochemical", "method": "(§2) CDK kinase activity (IC50 values and inhibitory rate at single concentration) was measured using the kinase profiling services (Shanghai ChemPartner Co., Ltd). Compounds were sent to ChemPartner as a solution in DMSO at concentration of 10 mM."}, "CDK9/cyclinT1": {"target": "CDK9/cyclinT1 (Homo sapiens, UniProt P50750)", "sequence (P50750 whole entry)": "as the sequence (P50750 whole entry) above", "sequence (O60563 whole entry partner)": "as the sequence (O60563 whole entry partner) above", "assay": "CDK9/cyclinT1 Lance Ultra Assay, single concentration screen", "assay_type": "biochemical", "conditions": "50 nM, ATP concentration at Km, read-out: CDK9 inhibitory rate (%) @ 50nM", "method": "as §2"}, "CDK7": {"target": "CDK7 (Homo sapiens, UniProt P50613)", "sequence (P50613 whole entry)": "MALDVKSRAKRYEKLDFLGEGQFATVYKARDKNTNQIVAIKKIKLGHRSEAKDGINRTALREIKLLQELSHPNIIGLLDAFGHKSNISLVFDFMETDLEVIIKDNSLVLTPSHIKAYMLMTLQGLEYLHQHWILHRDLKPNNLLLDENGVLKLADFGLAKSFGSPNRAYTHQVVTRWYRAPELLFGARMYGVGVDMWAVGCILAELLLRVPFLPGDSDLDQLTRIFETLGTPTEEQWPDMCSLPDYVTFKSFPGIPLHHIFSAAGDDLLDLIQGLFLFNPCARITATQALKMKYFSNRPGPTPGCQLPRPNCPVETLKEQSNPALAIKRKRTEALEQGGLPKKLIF", "sequence (P51946 whole entry partner)": "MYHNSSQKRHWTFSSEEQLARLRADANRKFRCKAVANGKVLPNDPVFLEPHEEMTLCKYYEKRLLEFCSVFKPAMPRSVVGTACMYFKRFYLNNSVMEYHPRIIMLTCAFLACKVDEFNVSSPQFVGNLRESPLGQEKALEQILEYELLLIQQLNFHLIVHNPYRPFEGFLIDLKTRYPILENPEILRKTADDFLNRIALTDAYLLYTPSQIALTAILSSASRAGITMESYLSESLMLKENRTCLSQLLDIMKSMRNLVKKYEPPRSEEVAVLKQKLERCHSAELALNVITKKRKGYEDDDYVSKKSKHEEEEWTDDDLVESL", "sequence (P51948 whole entry partner)": "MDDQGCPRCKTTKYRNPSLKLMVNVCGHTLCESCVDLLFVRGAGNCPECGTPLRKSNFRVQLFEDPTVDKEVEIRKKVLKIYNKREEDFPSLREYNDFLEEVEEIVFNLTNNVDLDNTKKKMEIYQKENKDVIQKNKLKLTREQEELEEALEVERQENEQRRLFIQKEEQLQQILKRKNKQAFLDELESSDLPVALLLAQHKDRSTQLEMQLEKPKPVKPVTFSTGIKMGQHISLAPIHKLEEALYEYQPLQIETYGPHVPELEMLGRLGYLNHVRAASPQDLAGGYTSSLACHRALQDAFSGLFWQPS", "assay": "CDK7 kinase IC50, Mobility shift assay", "assay_type": "biochemical", "method": "as §2"}, "PANC-1": {"system": "PANC-1", "assay": "MTT proliferation assay in PANC-1 cells", "assay_type": "cell-based", "conditions": "Homo sapiens, 72 h drug exposure", "method": "The human pancreatic carcinoma MIA PaCa-2 was purchased from China Centre for Type Culture Collection, AsPC-1 and BxPC-3 cell Lines were purchased from Cell Centre of the Institute of Basic Medical Sciences, Chinese Academy of Medical Sciences and Peking Union Medical College. PANC-1 was kindly provided by Nankai Hospital (Tianjin, China). These cancer cell lines were cultured according to the manufacturer’s instruction.\nCells were planted in 96-well plates at a density of 3000–4000 cells per well and incubated at 37 °C in a humidified CO2 incubator for 24 h. Then 3-fold diluted concentrations of tested compound were added respectively which was dissolved by DMSO in the ratio of 1:1000. After indicated incubation period, MTT was added to each well and incubated for 4 h at 37 °C. Then, the supernatant was discarded gently, and the precipitate was dissolved in 100 µL of DMSO in each well. The absorbance (A) at 570 nm was detected with a microplate reader (Multiskan MK3; Thermo Fisher Scientific, MA, USA). Vehicle-treated cells were served as the control for the calculation of relative cell viability (%) of treated group at single concentration. IC50 value was calculated directly from the inhibition curve of serial dilution of test compound and was expressed as mean ± SD using the SPSS statistical software (SPSS17.0 Inc., Chicago, IL, USA)."}}, "note": "“Also recorded” adds a separate entry of the source.", "data": [{"smiles": "CN(C)C(=O)c1cc2cnc(Nc3ccc(S(N)(=O)=O)cc3)nc2n1C1CCCC1", "note": "[compound 2g, 7-Cyclopentyl-N,N-dimethyl-2-((4-sulfamoylphenyl)amino)-7H-pyrrolo[2,3-d]pyrimidine-6-carboxamide]", "values": [{"measurement": "Mcl-1 and c-Myc protein level", "setting": "[1]", "result": "down-regulation of Mcl-1 and c-Myc protein"}, {"measurement": "phosphorylation of Rb and RNA polymerase II", "setting": "[1]", "result": "down-regulation of phosphorylated Rb protein; also recorded: inhibited the phosphorylation of Rb and RNA polymerase II"}, {"measurement": "tumour growth inhibition (TGI)", "setting": "[2]; oral 30 mg/kg, 3-week administration", "result": 12, "unit": "%"}, {"measurement": "reduction of tumour volume compared to vehicle group", "setting": "[2]; oral 60 mg/kg, 3 weeks", "result": "up to 46%"}, {"measurement": "number of late apoptotic cells", "setting": "MIA PaCa-2 cells [3]", "result": "increased in a dose-dependent manner"}, {"measurement": "effect on cell cycle", "setting": "MIA PaCa-2 cells [4]; 0.1 µM", "result": "cell cycle arrest at G1 phase"}, {"measurement": "effect on cell cycle", "setting": "MIA PaCa-2 cells [4]; 0.3 and 1.0 µM", "result": "modest G2/M-arrested effect"}, {"measurement": "IC50", "setting": "CDK9", "result": 5, "unit": "nM"}, {"measurement": "inhibition at 0.05 µM", "setting": "CDK9/cyclinT1", "result": 97.8, "unit": "%"}, {"measurement": "IC50", "setting": "CDK7", "result": "> 10000", "unit": "nM"}, {"measurement": "IC50", "setting": "PANC-1", "result": "11 ± 4.97", "unit": "µM"}]}]}
